The test addresses T1, ryanodine receptor from Spodoptera frugiperda (sfRyR) (Spodoptera frugiperda, UniProt A0A4P8L6R5).
T1 construct: gene RyR
Description: time-lapse R-CEPIA1er [Ca2+]ER measurement in HEK cells stably expressing sfRyR (positive control). Type of test: cell-based.

Structures are written as SMILES.

Results on 1 molecule are retold here after article PMC8206283, “Three New Quinazoline-Containing Indole Alkaloids From the Marine-Derived Fungus Aspergillus sp. HNMF114” (Frontiers in Microbiology, 2021).

T1 sequence (A0A4P8L6R5 entry or part of it): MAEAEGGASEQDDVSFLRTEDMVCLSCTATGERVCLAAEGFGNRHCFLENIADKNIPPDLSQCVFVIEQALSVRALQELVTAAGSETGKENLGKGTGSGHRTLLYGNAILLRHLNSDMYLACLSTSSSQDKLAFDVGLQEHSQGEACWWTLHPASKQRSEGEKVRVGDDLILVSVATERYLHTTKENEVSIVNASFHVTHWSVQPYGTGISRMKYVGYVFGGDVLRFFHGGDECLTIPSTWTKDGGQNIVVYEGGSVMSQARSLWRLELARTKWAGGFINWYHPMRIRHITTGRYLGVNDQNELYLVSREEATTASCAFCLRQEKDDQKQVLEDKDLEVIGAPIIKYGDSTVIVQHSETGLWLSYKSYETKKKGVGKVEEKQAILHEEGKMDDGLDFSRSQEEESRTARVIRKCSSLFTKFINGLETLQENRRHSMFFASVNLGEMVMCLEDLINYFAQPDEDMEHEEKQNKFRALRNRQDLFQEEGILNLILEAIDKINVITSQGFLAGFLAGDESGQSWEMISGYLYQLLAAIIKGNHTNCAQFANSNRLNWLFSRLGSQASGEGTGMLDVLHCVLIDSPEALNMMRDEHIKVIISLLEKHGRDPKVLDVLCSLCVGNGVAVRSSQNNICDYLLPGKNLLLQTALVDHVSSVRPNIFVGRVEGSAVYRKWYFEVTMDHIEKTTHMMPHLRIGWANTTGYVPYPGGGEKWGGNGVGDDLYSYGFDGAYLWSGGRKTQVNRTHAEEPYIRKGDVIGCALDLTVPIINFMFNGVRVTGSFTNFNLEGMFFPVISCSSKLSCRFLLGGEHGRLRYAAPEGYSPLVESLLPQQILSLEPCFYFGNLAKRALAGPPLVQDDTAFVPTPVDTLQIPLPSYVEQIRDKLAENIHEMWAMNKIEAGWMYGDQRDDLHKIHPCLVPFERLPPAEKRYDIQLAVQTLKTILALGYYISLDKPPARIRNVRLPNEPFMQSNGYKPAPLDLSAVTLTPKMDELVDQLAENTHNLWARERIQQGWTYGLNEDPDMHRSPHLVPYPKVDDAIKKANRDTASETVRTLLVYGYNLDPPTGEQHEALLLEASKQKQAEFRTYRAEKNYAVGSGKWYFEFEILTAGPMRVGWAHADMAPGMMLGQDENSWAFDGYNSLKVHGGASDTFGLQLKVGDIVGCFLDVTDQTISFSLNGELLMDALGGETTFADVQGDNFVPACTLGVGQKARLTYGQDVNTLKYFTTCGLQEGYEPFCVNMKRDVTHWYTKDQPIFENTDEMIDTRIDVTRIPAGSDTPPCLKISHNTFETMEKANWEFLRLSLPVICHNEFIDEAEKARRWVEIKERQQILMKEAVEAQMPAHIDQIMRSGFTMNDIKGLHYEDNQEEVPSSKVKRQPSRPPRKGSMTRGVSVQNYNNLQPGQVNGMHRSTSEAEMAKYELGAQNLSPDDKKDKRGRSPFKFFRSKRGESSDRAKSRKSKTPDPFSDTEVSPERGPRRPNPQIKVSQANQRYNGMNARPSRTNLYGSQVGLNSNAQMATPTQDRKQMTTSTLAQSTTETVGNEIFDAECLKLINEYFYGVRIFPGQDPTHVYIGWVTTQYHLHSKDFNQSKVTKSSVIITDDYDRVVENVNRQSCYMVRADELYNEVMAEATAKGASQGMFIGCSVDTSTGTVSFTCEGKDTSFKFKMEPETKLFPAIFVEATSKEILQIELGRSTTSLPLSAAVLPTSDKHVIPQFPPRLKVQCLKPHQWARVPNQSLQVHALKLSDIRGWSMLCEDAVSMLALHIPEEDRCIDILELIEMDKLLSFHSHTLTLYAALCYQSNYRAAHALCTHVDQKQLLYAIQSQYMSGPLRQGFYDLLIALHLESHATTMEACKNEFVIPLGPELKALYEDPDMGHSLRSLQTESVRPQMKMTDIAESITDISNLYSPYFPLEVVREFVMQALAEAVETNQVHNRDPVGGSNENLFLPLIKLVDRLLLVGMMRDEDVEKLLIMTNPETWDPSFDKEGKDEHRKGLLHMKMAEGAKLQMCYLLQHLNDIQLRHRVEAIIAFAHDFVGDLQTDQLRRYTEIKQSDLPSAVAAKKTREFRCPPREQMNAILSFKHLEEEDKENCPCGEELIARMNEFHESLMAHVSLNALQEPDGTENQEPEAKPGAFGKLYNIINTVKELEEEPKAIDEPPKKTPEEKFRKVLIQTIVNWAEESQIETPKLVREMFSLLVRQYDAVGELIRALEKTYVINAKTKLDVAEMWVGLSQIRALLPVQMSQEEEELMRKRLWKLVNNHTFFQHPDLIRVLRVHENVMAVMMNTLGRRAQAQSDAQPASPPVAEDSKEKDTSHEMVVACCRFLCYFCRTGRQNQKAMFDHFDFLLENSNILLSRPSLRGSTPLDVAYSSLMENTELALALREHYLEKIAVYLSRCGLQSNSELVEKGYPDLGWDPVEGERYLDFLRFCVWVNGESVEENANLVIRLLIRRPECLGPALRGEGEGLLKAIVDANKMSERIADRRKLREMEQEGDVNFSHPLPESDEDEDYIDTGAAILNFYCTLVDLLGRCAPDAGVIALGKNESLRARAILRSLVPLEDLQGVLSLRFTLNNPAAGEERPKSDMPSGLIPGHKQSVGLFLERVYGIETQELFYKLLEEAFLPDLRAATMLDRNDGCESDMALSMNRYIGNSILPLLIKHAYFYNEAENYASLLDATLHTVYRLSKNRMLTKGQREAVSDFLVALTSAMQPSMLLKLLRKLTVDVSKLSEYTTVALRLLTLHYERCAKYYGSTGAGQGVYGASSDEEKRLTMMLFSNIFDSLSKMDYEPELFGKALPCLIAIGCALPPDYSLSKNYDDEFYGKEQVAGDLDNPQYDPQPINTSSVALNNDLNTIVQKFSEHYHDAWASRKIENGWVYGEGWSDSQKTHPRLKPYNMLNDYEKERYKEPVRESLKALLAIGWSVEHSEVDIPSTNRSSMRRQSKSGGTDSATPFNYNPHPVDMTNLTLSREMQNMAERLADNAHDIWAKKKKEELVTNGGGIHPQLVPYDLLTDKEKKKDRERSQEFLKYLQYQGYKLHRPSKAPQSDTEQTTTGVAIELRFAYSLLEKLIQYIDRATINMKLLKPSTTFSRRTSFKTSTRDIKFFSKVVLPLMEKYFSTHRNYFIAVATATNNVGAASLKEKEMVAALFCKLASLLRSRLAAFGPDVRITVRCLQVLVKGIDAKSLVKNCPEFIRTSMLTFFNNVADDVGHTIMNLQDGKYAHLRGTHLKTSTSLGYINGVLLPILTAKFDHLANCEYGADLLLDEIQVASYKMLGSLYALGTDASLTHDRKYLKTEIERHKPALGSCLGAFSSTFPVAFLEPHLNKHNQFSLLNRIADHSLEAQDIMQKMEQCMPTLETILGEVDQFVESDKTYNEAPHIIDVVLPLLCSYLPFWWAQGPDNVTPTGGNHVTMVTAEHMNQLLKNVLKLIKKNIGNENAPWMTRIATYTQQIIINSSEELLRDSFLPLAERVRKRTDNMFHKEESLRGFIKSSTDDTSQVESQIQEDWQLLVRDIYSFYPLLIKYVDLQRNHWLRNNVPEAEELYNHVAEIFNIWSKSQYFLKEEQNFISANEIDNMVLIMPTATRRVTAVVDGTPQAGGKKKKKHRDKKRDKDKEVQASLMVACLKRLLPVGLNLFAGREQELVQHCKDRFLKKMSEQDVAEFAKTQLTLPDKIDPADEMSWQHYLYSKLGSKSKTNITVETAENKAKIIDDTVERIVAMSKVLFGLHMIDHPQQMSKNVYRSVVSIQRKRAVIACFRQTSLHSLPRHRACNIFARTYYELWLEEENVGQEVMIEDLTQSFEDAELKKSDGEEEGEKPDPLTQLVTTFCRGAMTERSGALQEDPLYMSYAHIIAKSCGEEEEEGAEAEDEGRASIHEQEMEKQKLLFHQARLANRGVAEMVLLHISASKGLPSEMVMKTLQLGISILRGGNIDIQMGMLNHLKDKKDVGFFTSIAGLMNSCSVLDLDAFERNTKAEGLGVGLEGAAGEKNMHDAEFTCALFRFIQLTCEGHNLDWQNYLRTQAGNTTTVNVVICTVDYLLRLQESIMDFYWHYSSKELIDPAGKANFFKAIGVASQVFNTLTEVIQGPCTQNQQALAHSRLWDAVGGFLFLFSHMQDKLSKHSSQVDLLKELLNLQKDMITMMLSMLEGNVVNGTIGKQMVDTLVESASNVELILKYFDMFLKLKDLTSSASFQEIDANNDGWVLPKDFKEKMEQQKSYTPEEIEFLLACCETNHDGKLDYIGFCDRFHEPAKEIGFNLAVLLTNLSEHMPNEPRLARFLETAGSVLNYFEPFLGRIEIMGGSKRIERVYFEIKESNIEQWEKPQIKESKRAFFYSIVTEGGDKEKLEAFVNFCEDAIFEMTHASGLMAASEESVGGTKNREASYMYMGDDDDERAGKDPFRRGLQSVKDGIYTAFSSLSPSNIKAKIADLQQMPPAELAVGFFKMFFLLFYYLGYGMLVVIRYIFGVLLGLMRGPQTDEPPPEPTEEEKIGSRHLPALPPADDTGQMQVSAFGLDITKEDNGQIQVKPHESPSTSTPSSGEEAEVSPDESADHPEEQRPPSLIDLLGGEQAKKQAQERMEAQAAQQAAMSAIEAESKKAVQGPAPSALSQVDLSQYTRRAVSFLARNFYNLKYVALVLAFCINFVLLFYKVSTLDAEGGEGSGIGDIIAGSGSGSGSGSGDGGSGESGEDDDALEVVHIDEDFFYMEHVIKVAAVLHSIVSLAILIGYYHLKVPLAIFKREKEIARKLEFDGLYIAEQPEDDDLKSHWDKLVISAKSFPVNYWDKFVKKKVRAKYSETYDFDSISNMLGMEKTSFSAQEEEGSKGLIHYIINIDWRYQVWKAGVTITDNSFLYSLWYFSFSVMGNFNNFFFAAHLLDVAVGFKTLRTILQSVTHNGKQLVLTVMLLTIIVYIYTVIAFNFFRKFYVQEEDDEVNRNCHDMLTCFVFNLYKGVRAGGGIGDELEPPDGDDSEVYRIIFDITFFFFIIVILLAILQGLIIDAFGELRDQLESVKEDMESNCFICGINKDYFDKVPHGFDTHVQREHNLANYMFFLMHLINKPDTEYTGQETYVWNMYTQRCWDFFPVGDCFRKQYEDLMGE

Turning to `CNC(=O)c1cc(Cl)cc(C)c1NC(=O)c1cc(Br)nn1-c1ncccc1Cl` [chlo, chlorantraniliprole], the “time-lapse R-CEPIA1er [Ca2+]ER measurement in HEK cells stably expressing sfRyR” value is recorded as “their effect in intracellular Ca2 release is similar to that of the positive control chlo”.
